What all share (format): cell-based, human
One data set deals with BT-474 cells. Briefly: MTS viability assay, BT-474 breast cancer cells. The conditions noted are these: 48 h, MTS. On the procedure: FIG. 2C. Effects of compounds 1-11 on the viability of BT-474 cells. BT-474 cells were cultured in DMEM/F12 medium supplemented with 10% FBS. Equal numbers were dispersed into 96-well plates. After 24 h, the cells were incubated with compounds 1-11 (0-30 μM) for 48 h. At the end of the incubation, MTS reagent (20% vol/vol) was added and the plates were incubated for 1-4 h. The OD490 was read with a plate reader. Wells with media but no cells were treated in similar fashion and the values utilized as blank. The results represent the mean±standard deviation of 6 independent determinations.
(§1) The cell lines were cultured from frozen stocks originally obtained from ATCC. MDA-MB-231, JIMT-1, DU145, U81, U251 cells were grown in DMEM medium. BT474, A2780s, A2780cp cells were grown in DMEM/F12 medium supplemented with 10% FBS. MiaPaCa2 was cultured in DMEM supplemented with 10% FBS and 2.5% horse serum. PC3 cells were cultured in F12K medium supplemented with 10% FBS. All the media were supplemented with penicillin/streptomycin.
(§2) The effects of the GAELs on the viability of the various epithelial cancer cell lines was determined as previously described. Briefly, equal numbers of the cells were dispersed into 96-well plates. After 24 h, the cells were incubated with the compounds (0-30 μM) for 48 h. At the end of the incubation, MTS reagent (20% vol/vol) was added and the plates were incubated for 1-4 h. The OD490 was read with a plate reader. Wells with media but no cells were treated in similar fashion and the values utilized as blank. The results represent the mean±standard deviation of 6 independent determinations.

A further data set relates to DU145 cells. Briefly: MTS viability assay, DU145 prostate cancer cells. Here is the method:
(§3) FIG. 2D. Effects of compounds 1-11 on the viability of DU145 cells. DU145 cells were cultured in DMEM medium supplemented with 10% FBS. Equal numbers were dispersed into 96-well plates. After 24 h, the cells were incubated with compounds 1-11 (0-30 μM) for 48 h. At the end of the incubation, MTS reagent (20% vol/vol) was added and the plates were incubated for 1-4 h. The OD490 was read with a plate reader. Wells with media but no cells were treated in similar fashion and the values utilized as blank. The results represent the mean±standard deviation of 6 independent determinations.
FIG. 2H. Effect of compounds 1, 69-72 on the viability of DU145 cells. DU145 cells were cultured in DMEM medium supplemented with 10% FBS. Equal numbers were dispersed into 96-well plates. After 24 h, the cells were incubated with compounds 1, 69-72 for 48 h. At the end of the incubation, MTS reagent (20% vol/vol) was added and the plates were incubated for 1-4 h. The OD490 was read with a plate reader. Wells with media but no cells were treated in similar fashion and the values utilized as blank. The results represent the mean±standard deviation of 6 independent determinations.
as §1, §2

For another data set, the system named is JIMT-1 cells. Briefly: MTS viability assay, JIMT-1 breast cancer cells. On the procedure:
FIG. 2B. Effects of compounds 1-11 on the viability of JIMT-1 cells. JIMT-1 cells were cultured in DMEM medium supplemented with 10% FBS. Equal numbers were dispersed into 96-well plates. After 24 h, the cells were incubated with compounds 1-11 (0-30 μM) for 48 h. At the end of the incubation, MTS reagent (20% vol/vol) was added and the plates were incubated for 1-4 h. The OD490 was read with a plate reader. Wells with media but no cells were treated in similar fashion and the values utilized as blank. The results represent the mean±standard deviation of 6 independent determinations.
(§4) FIG. 2J. Effects of compounds 1, 69-72 on the viability of JIMT-1 cells. JIMT-1 cells were cultured in DMEM medium supplemented with 10% FBS. Equal numbers were dispersed into 96-well plates. After 24 h, the cells were incubated with compounds 1, 69-72 for 48 h. At the end of the incubation, MTS reagent (20% vol/vol) was added and the plates were incubated for 1-4 h. The OD490 was read with a plate reader. Wells with media but no cells were treated in similar fashion and the values utilized as blank. The results represent the mean±standard deviation of 6 independent determinations.
as §1, §2

Another data set deals with MDA-MB-231 cells. Description: MTS viability assay, MDA-MB-231 breast cancer cells. Here is the method: FIG. 2A. Effects of compounds 1-11 on the viability of MDA-MB231 cells. MDA-MB-231 cells were cultured in DMEM medium supplemented with 10% FBS. Equal numbers were dispersed into 96-well plates. After 24 h, the cells were incubated with compounds 1-11 (0-30 μM) for 48 h. At the end of the incubation, MTS reagent (20% vol/vol) was added and the plates were incubated for 1-4 h. The OD490 was read with a plate reader. Wells with media but no cells were treated in similar fashion and the values utilized as blank. The results represent the mean±standard deviation of 6 independent determinations.
FIG. 2K. Effects of compounds 1, 69-72 on the viability of MDA-MB-231 cells. MDA-MB-231 cells were cultured in DMEM medium supplemented with 10% FBS. Equal numbers were dispersed into 96-well plates. After 24 h, the cells were incubated with compounds 1, 69-72 for 48 h. At the end of the incubation, MTS reagent (20% vol/vol) was added and the plates were incubated for 1-4 h. The OD490 was read with a plate reader. Wells with media but no cells were treated in similar fashion and the values utilized as blank. The results represent the mean±standard deviation of 6 independent determinations.
as §1, §2

Data set [1] relates to BT-474, JIMT-1, MDA-MB-231 (breast), DU145, PC3 (prostate), MiaPaCa2 (pancreas). Description: MTS viability, panel of epithelial cancer cell lines (ranges over the cell lines). Here is the method: To determine the effect of compounds 1-10 on the viability of the epithelial cancer cell lines, exponentially growing cells, BT-474, JIMT-1, MDA-MB-231 (breast), DU145, PC3 (prostate), MiaPaCa2 (pancreas) were incubated with varying concentrations of 1-8 (0-30 μM) for 48 h followed by viability assays with the MTS reagent.
as §2

The subject of a further data set is PC3 cells. Briefly: MTS viability assay, PC3 prostate cancer cells. Conditions: 48 h, MTS. On the procedure: FIG. 2E. Effects of compounds 1-11 on the viability of PC3 cells. PC3 cells were cultured in F12K medium supplemented with 10% FBS. Equal numbers were dispersed into 96-well plates. After 24 h, the cells were incubated with compounds 1-11 (0-30 μM) for 48 h. At the end of the incubation, MTS reagent (20% vol/vol) was added and the plates were incubated for 1-4 h. The OD490 was read with a plate reader. Wells with media but no cells were treated in similar fashion and the values utilized as blank. The results represent the mean±standard deviation of 6 independent determinations.
as §1, §2

The next data set concerns MiaPaCa2 cells. Briefly: MTS viability assay, MiaPaCa2 pancreas cancer cells. Here is the method:
as §3, with “2F.” for “2D.”, “MiaPaCa2” for “DU145”, “FBS and 2.5% horse serum.” for “FBS.”
as §4, with “2I.” for “2J.”, “MiaPaCa2” for “JIMT-1”, “FBS and 2.5% horse serum.” for “FBS.”
as §1, §2

[2] abbreviates: Table 1A, read-out: CC50 values BT474.
Where [3] appears, read: Table 1B, read-out: CC90 values BT474.
Setting [4] is: Table 1A, 48 h, read-out: CC50 values DU 145.
Where [5] appears, read: Table 1B, 48 h, read-out: CC90 values DU 145.
Where [6] appears, read: Table 1A, 48 h, read-out: CC50 values JIMT1.
Setting [7] is: Table 1B, 48 h, read-out: CC90 values JIMT1.
[8] abbreviates: Table 1A, 48 h, read-out: CC50 values MD 231.
Setting [9] is: Table 1B, 48 h, read-out: CC90 values MD 231.
[10] abbreviates: Table 1A, read-out: CC50 values PC3.
Where [11] appears, read: Table 1B, read-out: CC90 values PC3.
The mark [12] stands for this setting: Table 1A, 48 h, read-out: CC50 values MiaPaCa2.
Where [13] appears, read: Table 1B, 48 h, read-out: CC90 values MiaPaCa2.
The mark [14] stands for this setting: Table 6, 48 h, read-out: DU145 CC50.
Where [15] appears, read: Table 6, 48 h, read-out: DU145 CC90.
[16] abbreviates: Table 6, 48 h, read-out: JIMT1 CC50.
Where [17] appears, read: Table 6, 48 h, read-out: JIMT1 CC90.
Where [18] appears, read: Table 6, 48 h, read-out: MB-MDA-231 CC50.
The mark [19] stands for this setting: Table 6, 48 h, read-out: MB-MDA-231 CC90.
[20] abbreviates: Table 6, 48 h, read-out: MiaPaCa2 CC50.
Setting [21] is: Table 6, 48 h, read-out: MiaPaCa2 CC90.

Read-outs that look alike come from different tables or passages of the source.

5 compounds from US10806746B2, “Di- and tri-cationic glycosylated antitumor ether lipids, L-gucosylated gaels and rhamnose-linked gaels as cytotoxic agents against epithelial cancer cells and cancer stem cells” (The University of Manitoba, priority 2014, dated 2020) can be followed below.

With `CCCCCCCCCCCCCCCCOCC(CO[C@@H]1O[C@H](CO)[C@@H](O)[C@H](O)[C@H]1N)NC(=O)CCCCCCCCCCCCCCC` (stereo partly drawn) [Compound 9, 1-O-Hexadecyloxy-2S/R—N-hexadecylacyl-3-(-2′-amino-2′-deoxy-β-D-glucopyranosyl)-glycerol], the CC50 in the data set with BT-474 cells (setting [2]), in the data set with DU145 cells (setting [4]), in the data set with JIMT-1 cells (setting [6]), in the data set with MDA-MB-231 cells (setting [8]), with PC3 cells (setting [10]) and in the data set on MiaPaCa2 cells (setting [12]) was greater than 30 µM each time. Further, the CC90 in the data set on BT-474 cells (setting [3]), with DU145 cells (setting [5]), in the data set with JIMT-1 cells (setting [7]), in the data set with MDA-MB-231 cells (setting [9]), in the data set with PC3 cells (setting [11]) and with MiaPaCa2 cells (setting [13]) was greater than 30 µM throughout. For the same compound, the “activity at the highest concentration tested” value in data set [1] (30 μM, all the cell lines tested) is “not active”.

With `CCCCCCCCCCCCCCCCOC[C@H](COC1O[C@H](CNCCCN)[C@@H](O)[C@H](O)[C@H]1N)OC` (some centres unmarked) [Compound 74, 1-O-Hexadecyl-2-O-methyl-3-O-[6′-N-(3-aminopropyl)-2′,6′-diamino-2′,6′-dideoxy-glucopyranoside]-sn-glycerol], the CC50 with BT-474 cells (Table 6, read-out: BT474 CC50) is greater than 20 µM; with DU145 cells (setting [14]) it was 16.5 µM; with JIMT-1 cells (setting [16]) it was 13.5 µM; in the data set with MDA-MB-231 cells (setting [18]) it was 13.5 µM; with PC3 cells (Table 6, read-out: PC3 CC50) it was 12.5 µM; with MiaPaCa2 cells (setting [20]), 18.5 µM. Also, the CC90 is greater than 20 µM in the data set on BT-474 cells (Table 6, read-out: BT474 CC90); 20 µM in the data set on DU145 cells (setting [15]); 18.5 µM in the data set with JIMT-1 cells (setting [17]); 19.5 µM with MDA-MB-231 cells (setting [19]); 20 µM with PC3 cells (Table 6, read-out: PC3 CC90); greater than 20 µM in the data set with MiaPaCa2 cells (setting [21]).

As to `CCCCCCCCCCCCCCCCOC[C@@H](CN)O[C@H]1O[C@H](CO)[C@@H](O)[C@H](O)[C@H]1N` [Compound 7, 1-O-Hexadecyloxy-2R-(2′-amino-2′-deoxy-α-D-glucopyranosyl)-3-amino glycerol], the CC50 was 25 µM in the data set with BT-474 cells (setting [2]); 17.5 µM with DU145 cells (setting [4]); 14 µM in the data set on JIMT-1 cells (setting [6]); 12 µM with MDA-MB-231 cells (setting [8]); 9.5 µM in the data set with PC3 cells (setting [10]); 15 µM in the data set with MiaPaCa2 cells (setting [12]). In addition, the CC90 in the data set with BT-474 cells (setting [3]) is greater than 30 µM; in the data set on DU145 cells (setting [5]), 25 µM; in the data set on JIMT-1 cells (setting [7]), 19 µM; in the data set with MDA-MB-231 cells (setting [9]), 17.5 µM; in the data set on PC3 cells (setting [11]), 17 µM; with MiaPaCa2 cells (setting [13]), 28 µM.

As for `CCCCCCCCCCCCCCCCOC[C@H](COC1O[C@H](CN)[C@@H](O)[C@H](O)[C@H]1NCCCCCCCCCCCCN)OC` (some centres unmarked) [Compound 75, 1-O-Hexadecyl-2-O-methyl-3-O-[2′-N-(12-aminododecyl)-2′,6′-diamino-2′,6′-dideoxy-glucopyranoside]-sn-glycerol], the CC50 came to 13.5 µM in the data set on BT-474 cells (Table 6, read-out: BT474 CC50); 7.5 µM in the data set on DU145 cells (setting [14]); 8 µM with JIMT-1 cells (setting [16]); 5.5 µM with MDA-MB-231 cells (setting [18]); 8.5 µM in the data set on PC3 cells (Table 6, read-out: PC3 CC50); 8.5 µM in the data set with MiaPaCa2 cells (setting [20]). In addition, the CC90 in the data set on BT-474 cells (Table 6, read-out: BT474 CC90) was 16.5 µM; in the data set on DU145 cells (setting [15]) it was 9.5 µM; in the data set with JIMT-1 cells (setting [17]), 9.5 µM; with MDA-MB-231 cells (setting [19]), 9.5 µM; in the data set with PC3 cells (Table 6, read-out: PC3 CC90), 11.5 µM; in the data set with MiaPaCa2 cells (setting [21]), 12 µM. In data set [1] (tricationic GAELs, FIG. 2O, Table 6), the “cytotoxicity against all cell lines examined” value is listed as “cytotoxic”.

For the compound `CCCCCCCCCCCCCCCCOC[C@H](CO[C@@H]1O[C@H](CN)[C@@H](O)[C@H](O)[C@H]1N)OC` [Compound 2, 1-O-Hexadecyl-2-O-methyl-3-O-(-2′,6′-diamino-2′,6′-dideoxy-β-D-glucopyranosyl)-sn-glycerol], the CC90 in the data set with BT-474 cells (setting [3]) was 14 µM; in the data set on DU145 cells (setting [5]), 8.5 µM; in the data set with JIMT-1 cells (setting [7]), 6.5 µM; in the data set on MDA-MB-231 cells (setting [9]), 7 µM; in the data set on PC3 cells (setting [11]), 14 µM; in the data set with MiaPaCa2 cells (setting [13]), 12 µM. The CC50 in the data set with DU145 cells (setting [4]) was 6 µM; in the data set on JIMT-1 cells (setting [6]), 4.2 µM; in the data set on MDA-MB-231 cells (setting [8]), 5.5 µM; in data set [1] (range over the cell lines tested, 48 h, read-out: CC50 values, range depending on the cell line), 4.2 to 11.5 µM; with PC3 cells (setting [10]), 11 µM; in the data set on MiaPaCa2 cells (setting [12]), 7 µM.
